Reference: PubChem BioAssay AID330 (DTP/NCI, 2004)
Values joined by “and” are separate entries in the source; they are usually repeats but may differ in a detail not shown here. Equal entries are not always repeated. Toxic doses and inconclusive results are not listed. How the source made its calls: active means survival T/C of 150% or more; inactive means T/C below 125% in these data.

Tested on: P388 leukemia ip, CD2F1 mice, survival T/C
Assay: NCI In Vivo Anticancer Drug Screen. Data for tumor model P388 Leukemia (intraperitoneal) in CD2F1 (CDF1) mice
Details: endpoint: median survival time, higher = longer survival
Method in brief: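 Mice carrying the transplanted tumor received test compound or vehicle. Survival was recorded in each group, and the value is the treated-group measurement divided by that of the vehicle-treated control group.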

[1] = dose: 100.0 mg/kg/injection, schedule: Q01DX009 (ip), vehicle: saline
[2] = dose: 200.0 mg/kg/injection, schedule: Q01DX009 (ip), vehicle: saline
[3] = dose: 400.0 mg/kg/injection, schedule: Q01DX009 (ip), vehicle: saline
[4] = dose: 50.0 mg/kg/injection, schedule: Q01DX005 (ip), vehicle: Klucel (hydroxypropylcellulose) (HPC)
[5] = dose: 100.0 mg/kg/injection, schedule: Q01DX005 (ip), vehicle: Klucel (hydroxypropylcellulose) (HPC)
[6] = dose: 200.0 mg/kg/injection, schedule: Q01DX005 (ip), vehicle: Klucel (hydroxypropylcellulose) (HPC)
[7] = dose: 100.0 mg/kg/injection, schedule: Q04DX002 (ip), vehicle: saline with Tween-80
[8] = dose: 50.0 mg/kg/injection, schedule: Q01DX009 (ip), vehicle: saline with Tween-80
[9] = dose: 100.0 mg/kg/injection, schedule: Q01DX009 (ip), vehicle: saline with Tween-80
[10] = dose: 200.0 mg/kg/injection, schedule: Q01DX009 (ip), vehicle: saline with Tween-80
[11] = dose: 50.0 mg/kg/injection, schedule: Q01DX009 (ip), vehicle: saline
[12] = dose: 50.0 mg/kg/injection, schedule: Q01DX009 (ip), vehicle: Klucel (hydroxypropylcellulose) (HPC)
[13] = dose: 100.0 mg/kg/injection, schedule: Q01DX009 (ip), vehicle: Klucel (hydroxypropylcellulose) (HPC)

Measured: T/C

CCCC(C)Br (stereo not drawn)
inactive: [1] 109 % of control | [2] 114 % of control | [3] 115 % of control

NC(CSCc1ccccc1)C(=O)Nc1ccc([N+](=O)[O-])cc1 (stereo not drawn)
inactive: [4] 110 % of control | [5] 101 % of control | [6] 104 % of control

O=C(Nc1ccc(C2=NCCCN2)cc1)c1ccc(C(=O)Nc2ccc(C3=NCCCN3)cc2)nc1
inactive: dose: 2.5 mg/kg/injection, schedule: Q01DX009 (ip), vehicle: saline 100 % of control | dose: 5.0 mg/kg/injection, schedule: Q04DX003 (ip), vehicle: saline 95 % of control | dose: 10.0 mg/kg/injection, schedule: Q04DX003 (ip), vehicle: saline 90 % of control

CC(=O)/C=C1/N(C)c2ccccc2C1(C)C
inactive: [4] 100 % of control | [5] 100 % of control | [6] 99 % of control

CCn1c(O)c(N=O)c(=O)n(CC)c1=S
inactive: dose: 50.0 mg/kg/injection, schedule: Q04DX002 (ip), vehicle: saline with Tween-80 105 % of control | [7] 97 % of control

CCOC(=O)Nc1nc2ccccc2n1CN1CCCCC1
inactive: dose: 25.0 mg/kg/injection, schedule: Q01DX005 (ip), vehicle: Klucel (hydroxypropylcellulose) (HPC) 97 % of control | [4] 100 % of control | [5] 106 % of control | [6] 115 % of control

CCCCOC1OCN(Cc2ccccc2)CC1(C)C (stereo not drawn)
inactive: [8] 111 % of control | [9] 123 % of control | [10] 122 % of control

C[CH2][Hg][S]c1nsc([S][Hg][CH2]C)n1
inactive: dose: 3.13 mg/kg/injection, schedule: Q01DX009 (ip), vehicle: Klucel (hydroxypropylcellulose) (HPC) 94 % of control | dose: 6.25 mg/kg/injection, schedule: Q01DX009 (ip), vehicle: Klucel (hydroxypropylcellulose) (HPC) 118 % of control and 95 % of control | dose: 12.5 mg/kg/injection, schedule: Q01DX009 (ip), vehicle: Klucel (hydroxypropylcellulose) (HPC) 98 % of control and 115 % of control

CNC(=S)N(C)CCCCN(C)C(=S)NC
inactive: [11] 102 % of control | [1] 105 % of control | [2] 100 % of control

C=CCn1c(-c2ccccc2Cl)n[nH]c1=S
inactive: [8] 102 % of control | [9] 95 % of control | [10] 99 % of control

Nc1nc(N)c2nc(NCc3ccc(C(=O)NC(CCC(=O)O)C(=O)O)cc3)cnc2n1 (stereo not drawn)
inactive: [11] 100 % of control | [1] 109 % of control | [2] 113 % of control | [3] 95 % of control

N#CCCS(=O)(=O)c1ccc(Cl)cc1
inactive: [11] 99 % of control | [1] 100 % of control | [2] 100 % of control

CCN(CC)CCOc1ccc(C(=O)CC(=O)c2c(-c3ccccc3)n(C)c3ccccc23)cc1
inactive: dose: 50.0 mg/kg/injection, schedule: Q01DX001 (ip), vehicle: saline 101 % of control | dose: 100.0 mg/kg/injection, schedule: Q01DX001 (ip), vehicle: saline 94 % of control | dose: 200.0 mg/kg/injection, schedule: Q01DX001 (ip), vehicle: saline 91 % of control

C=C(C)C1(C(=O)OCC(Cl)(Cl)Cl)NC(=O)C(NC(=O)COc2ccccc2)=CO1 (stereo not drawn)
inactive: dose: 50.0 mg/kg/injection, schedule: Q01DX005 (ip), vehicle: saline with Tween-80 99 % of control | dose: 100.0 mg/kg/injection, schedule: Q01DX005 (ip), vehicle: saline with Tween-80 88 % of control | dose: 200.0 mg/kg/injection, schedule: Q01DX005 (ip), vehicle: saline with Tween-80 95 % of control

CC(C#N)C(N)=O (stereo not drawn)
inactive: dose: 12.5 mg/kg/injection, schedule: Q04DX003 (ip), vehicle: saline 100 % of control | dose: 25.0 mg/kg/injection, schedule: Q04DX003 (ip), vehicle: saline 105 % of control | dose: 50.0 mg/kg/injection, schedule: Q04DX003 (ip), vehicle: saline 110 % of control

COc1ccc(CC#N)cc1OC
inactive: dose: 3.75 mg/kg/injection, schedule: Q01DX009 (ip), vehicle: saline with Tween-80 90 % of control | dose: 7.5 mg/kg/injection, schedule: Q01DX009 (ip), vehicle: saline with Tween-80 90 % of control | dose: 15.0 mg/kg/injection, schedule: Q01DX009 (ip), vehicle: saline with Tween-80 90 % of control

O=S(=O)(O)c1ccccc1O
inactive: dose: 25.0 mg/kg/injection, schedule: Q01DX001 (ip), vehicle: saline with Tween-80 111 % of control | dose: 50.0 mg/kg/injection, schedule: Q01DX001 (ip), vehicle: saline with Tween-80 98 % of control | dose: 100.0 mg/kg/injection, schedule: Q01DX001 (ip), vehicle: saline with Tween-80 99 % of control

CC1(C)CN(C(=S)N2CC(C)(C)SC2=O)C(=O)S1
inactive: dose: 60.0 mg/kg/injection, schedule: Q01DX005 (ip), vehicle: saline with Tween-80 108 % of control | dose: 120.0 mg/kg/injection, schedule: Q01DX005 (ip), vehicle: saline with Tween-80 98 % of control | dose: 240.0 mg/kg/injection, schedule: Q01DX005 (ip), vehicle: saline with Tween-80 104 % of control

O=C(NNC(=S)NC1OCC(O)C(O)C1O)c1ccco1 (stereo not drawn)
inactive: [4] 99 % of control and 102 % of control | [5] 100 % of control and 102 % of control | [6] 104 % of control and 106 % of control | dose: 400.0 mg/kg/injection, schedule: Q01DX005 (ip), vehicle: Klucel (hydroxypropylcellulose) (HPC) 98 % of control

NCCN1C(=O)c2ccccc2C1(O)c1ccc(Cl)cc1 (stereo not drawn)
inactive: [12] 102 % of control | [13] 97 % of control | dose: 200.0 mg/kg/injection, schedule: Q01DX009 (ip), vehicle: Klucel (hydroxypropylcellulose) (HPC) 98 % of control

C/C(CC(C)C(=O)O)=N/NC(N)=O (stereo not drawn)
inactive: [4] 97 % of control | [5] 97 % of control | [6] 97 % of control

CC(C)Cc1cc(C(F)(F)F)nc(NNc2nc(CC(C)C)cc(C(F)(F)F)n2)n1
inactive: [12] 90 % of control | [13] 87 % of control

C=C1CC2C3CC=C4CC(OC(C)=O)CCC4(C)C3CCC2(C)C1=O (stereo not drawn)
inactive: dose: 12.5 mg/kg/injection, schedule: Q01DX009 (ip), vehicle: saline with Tween-80 94 % of control | dose: 25.0 mg/kg/injection, schedule: Q01DX009 (ip), vehicle: saline with Tween-80 92 % of control | [11] 104 % of control | [1] 110 % of control

C#C/C=C/CC1OC(C(Br)CC)CC(OC(C)=O)C(Cl)CC1Cl (stereo not drawn)
inactive: dose: 3.75 mg/kg/injection, schedule: Q01DX005 (ip), vehicle: Klucel (hydroxypropylcellulose) (HPC) 97 % of control | dose: 7.5 mg/kg/injection, schedule: Q01DX005 (ip), vehicle: Klucel (hydroxypropylcellulose) (HPC) 120 % of control | dose: 15.0 mg/kg/injection, schedule: Q01DX005 (ip), vehicle: Klucel (hydroxypropylcellulose) (HPC) 100 % of control | dose: 30.0 mg/kg/injection, schedule: Q01DX005 (ip), vehicle: Klucel (hydroxypropylcellulose) (HPC) 98 % of control

CO/C=C1\CC(=O)N(C)C1=O
inactive: dose: 100.0 mg/kg/injection, schedule: Q04DX003 (ip), vehicle: saline with Tween-80 110 % of control | dose: 200.0 mg/kg/injection, schedule: Q04DX003 (ip), vehicle: saline with Tween-80 97 % of control | dose: 400.0 mg/kg/injection, schedule: Q04DX003 (ip), vehicle: saline with Tween-80 97 % of control

OCCC[N+]12CCCN1CCC2
inactive: [11] 98 % of control | [1] 104 % of control

Cc1ccc(-c2cc(C(=O)NN)c(C#N)c(=O)[nH]2)cc1
inactive: dose: 60.0 mg/kg/injection, schedule: Q01DX005 (ip), vehicle: suspension in saline 97 % of control | dose: 120.0 mg/kg/injection, schedule: Q01DX005 (ip), vehicle: suspension in saline 100 % of control | dose: 240.0 mg/kg/injection, schedule: Q01DX005 (ip), vehicle: suspension in saline 100 % of control

O=C1Oc2nc3ccccc3cc2/C1=C/c1ccccc1
inactive: [7] 89 % of control | dose: 200.0 mg/kg/injection, schedule: Q04DX002 (ip), vehicle: saline with Tween-80 92 % of control | dose: 400.0 mg/kg/injection, schedule: Q04DX002 (ip), vehicle: saline with Tween-80 99 % of control

CN(C)CCC(=O)c1ccc(Cl)cc1
inactive: [11] 106 % of control | [1] 105 % of control

CC(C)=CC[P+](CC[P+](CC=C(C)C)(c1ccccc1)c1ccccc1)(c1ccccc1)c1ccccc1
inactive: dose: 6.25 mg/kg/injection, schedule: Q01DX005 (ip), vehicle: saline with Tween-80 98 % of control | dose: 12.5 mg/kg/injection, schedule: Q01DX005 (ip), vehicle: saline with Tween-80 98 % of control

CP1(=O)CCC23CCCCC21O3 (stereo not drawn)
inactive: [11] 104 % of control | [1] 111 % of control | [2] 95 % of control
